PMC5681660, “Reduced hepatitis B and D viral entry using clinically applied drugs as novel inhibitors of the bile acid transporter NTCP” (Scientific Reports, 2017)
Counter-ions that a name gives are not always drawn.

Target: T1, human NTCP (Homo sapiens, UniProt Q14973)
T1 sequence (Q14973 1-349): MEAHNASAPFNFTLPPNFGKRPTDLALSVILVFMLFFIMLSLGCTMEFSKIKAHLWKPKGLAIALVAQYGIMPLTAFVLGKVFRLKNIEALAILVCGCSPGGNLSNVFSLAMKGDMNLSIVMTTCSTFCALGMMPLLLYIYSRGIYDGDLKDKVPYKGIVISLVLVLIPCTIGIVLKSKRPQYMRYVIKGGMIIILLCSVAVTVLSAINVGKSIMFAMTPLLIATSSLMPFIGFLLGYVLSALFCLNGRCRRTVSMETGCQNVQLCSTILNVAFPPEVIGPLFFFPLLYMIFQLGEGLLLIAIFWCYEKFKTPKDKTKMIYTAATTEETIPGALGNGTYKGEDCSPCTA
Experiment: Screening taurocholate uptake assay (96-well, [14C]taurocholate, 10 µM drug)
Settings: for B-score functional assay: screening taurocholate uptake, 10 µM drug

[1] = combined ranking of functional and binding screening assays
[2] = ranking over the functional and the binding screening assay

SMILES | Ranking score [1] | B-score functional assay | Ranking score [2] | B-score functional assay (B-score)
CC[N+](CC)(CC)CCOc1cccc(OCC[N+](CC)(CC)CC)c1OCC[N+](CC)(CC)CC [Gallamine triethiodide] | 565.721 | 3.679 | – | –
COc1c(N2CCNC(C)C2)c(F)cc2c(=O)c(C(=O)O)cn(C3CC3)c12 (stereo not drawn) [Gatifloxacin] | 627.155 | -0.592 | – | –
COc1cc2ncnc(Nc3ccc(F)c(Cl)c3)c2cc1OCCCN1CCOCC1 [Gefitinib] | 629.087 | 0.784 | – | –
Cc1ccc(S(=O)(=O)NC(=O)NN2CC3CCCC3C2)cc1 (stereo not drawn) [Gliclazide] | – | -0.222 | 246.057 | –
COC1=CC(=O)C[C@@H](C)[C@]12Oc1c(Cl)c(OC)cc(OC)c1C2=O [Griseofulvin] | 477.468 | -0.69 | – | –
COc1ccccc1OCC(O)CO (stereo not drawn) [Guaifenesin] | 466.326 | 0.275 | – | –
N=C(N)N/N=C/c1c(Cl)cccc1Cl [Guanabenz acetate] | 467.541 | -1.531 | – | –
N=C(N)NC(=O)Cc1c(Cl)cccc1Cl [Guanfacine hydrochloride] | 635.421 | 0.703 | – | –
CC1(C)O[C@@H]2C[C@H]3[C@@H]4CCC5=CC(=O)CC[C@]5(C)[C@@]4(F)[C@@H](O)C[C@]3(C)[C@]2(C(=O)CCl)O1 [Halcinonide] | 634.219 | 0.608 | – | –
Clc1cc(Cl)c(OCC#CI)cc1Cl [Haloprogin] | 1271.5 | – | – | 4.15
C[N+]1(C)CCOC(O)(c2ccc(-c3ccc(C4(O)C[N+](C)(C)CCO4)cc3)cc2)C1.[Br-].[Br-] (stereo not drawn) [Hemicholinium bromide] | – | -3 | 262.621 | –
CC(N)CCCC(C)(C)O (stereo not drawn) [Heptaminol hydrochloride] | 1189.85 | – | – | 2.111
COc1ccc([C@@H]2CC(=O)c3c(O)cc(O[C@@H]4O[C@H](CO[C@@H]5O[C@@H](C)[C@H](O)[C@@H](O)[C@H]5O)[C@@H](O)[C@H](O)[C@H]4O)cc3O2)cc1O [Hesperidin] | 580.078 | 0.91 | – | –
CC[C@H](c1ccc(O)cc1)[C@@H](CC)c1ccc(O)cc1 [Hexestrol] | – | -5.763 | 43.1277 | –
CCCCC(CC)CN1CN(CC(CC)CCCC)CC(C)(N)C1 (stereo not drawn) [Hexetidine] | 491.543 | 3.961 | – | –
NCCc1c[nH]cn1 [Histamine dihydrochloride] | 536.125 | 0.779 | – | –
COc1ccc(CCN)cc1OC [Homoveratrylamine] | 500.783 | 0.521 | – | –
CCN(CC)CCNc1ccc(CO)c2sc3ccccc3c(=O)c12 [Hycanthone] | 491.684 | -0.266 | – | –
NNc1nncc2ccccc12 [Hydralazine hydrochloride] | 587.239 | -0.84 | – | –
NS(=O)(=O)c1cc2c(cc1Cl)NCNS2(=O)=O [Hydrochlorothiazide] | 515.124 | 0.079 | – | –
C[C@]12CCC(=O)C=C1CC[C@@H]1[C@@H]2[C@@H](O)C[C@@]2(C)[C@H]1CC[C@]2(O)C(=O)CO [Hydrocortisone base] | 557.864 | 0.004 | – | –
CCCCCN(C)CCC(O)(P(=O)([O-])O)P(=O)(O)O.[Na+] [Ibandronate sodium] | – | 0.015 | 183.606 | –
c1ccc2c(c1)OCC(C1=NCCN1)O2 (stereo not drawn) [Idazoxan hydrochloride] | – | -2.926 | 198.728 | –
COC1=C(OC)C(=O)C(CCCCCCCCCCO)=C(C)C1=O [Idebenone] | 488.87 | 0.176 | – | –
O=c1[nH]c(=O)n([C@H]2C[C@H](O)[C@@H](CO)O2)cc1I [Idoxuridine] | – | -4.488 | 91.1921 | –
C[C@@H](O)[C@H]1C(=O)N2C(C(=O)O)=C(SCCN=CN)C[C@H]12 [Imipenem] | 1154.72 | – | – | 1.996
CC1Cc2ccccc2N1NC(=O)c1ccc(Cl)c(S(N)(=O)=O)c1 (stereo not drawn) [Indapamide] | 559.557 | -0.108 | – | –

SMILES | Ranking score [1] | B-score functional assay | Ranking score [2] | B-score functional assay (B-score)
COc1ccc2c(c1)c(CC(=O)O)c(C)n2C(=O)c1ccc(Cl)cc1 [Indomethacin] | – | -1.11 | 264.174 | –
NC(N)=NCc1cccc(I)c1.NC(N)=NCc1cccc(I)c1.O=S(=O)(O)O [Iobenguane sulfate] | 1171.02 | – | – | 1.016
CC(=O)N(CC(C)C(=O)O)c1c(I)cc(I)c(N)c1I (stereo not drawn) [Iocetamic acid] | – | -0.783 | 232.635 | –
CC(=O)N(CC(O)CN(C(C)=O)c1c(I)c(C(=O)NCC(O)CO)c(I)c(C(=O)NCC(O)CO)c1I)c1c(I)c(C(=O)NCC(O)CO)c(I)c(C(=O)NCC(O)CO)c1I (stereo not drawn) [Iodixanol] | – | 2.051 | 270.78 | –
C[C@H](O)C(=O)Nc1c(I)c(C(=O)NC(CO)CO)c(I)c(C(=O)NC(CO)CO)c1I [Iopamidol] | – | -2.672 | 105.925 | –
COCC(=O)Nc1c(I)c(C(=O)NCC(O)CO)c(I)c(C(=O)N(C)CC(O)CO)c1I (stereo not drawn) [Iopromide] | – | -5.088 | 153.642 | –
CC(C)Oc1ccc2c(=O)c(-c3ccccc3)coc2c1 [Ipriflavone] | 535.848 | 2.878 | – | –
CC(C)NNC(=O)c1ccncc1.O=P(O)(O)O [Iproniazide phosphate] | 542.692 | 0.714 | – | –
Cc1cc(C(=O)NNCc2ccccc2)no1 [Isocarboxazid] | 552.74 | 0.681 | – | –
CCC(NC(C)C)C(O)c1ccc(O)c(O)c1.CS(=O)(=O)O (stereo not drawn) [Isoetharine mesylate salt] | 639.265 | -0.384 | – | –
CC(=O)OCC(=O)[C@@]1(O)CC[C@H]2[C@@H]3CCC4=CC(=O)C=C[C@]4(C)[C@@]3(F)[C@@H](O)C[C@@]21C [Isoflupredone acetate] | 486.111 | 1.125 | – | –
Cc1c(NC(C)C)c(=O)n(-c2ccccc2)n1C.Cl [Isopyrin hydrochloride] | – | -3.076 | 209.153 | –
O=[N+]([O-])O[C@@H]1CO[C@H]2[C@@H]1OC[C@@H]2O [Isosorbide mononitrate] | – | -0.263 | 252.589 | –
CC1=C(/C=C/C(C)=C/C=C/C(C)=C\C(=O)O)C(C)(C)CCC1 [Isotretinoin] | – | -0.503 | 204.751 | –
COC(=O)C1=C(C)NC(C)=C(C(=O)OC(C)C)C1c1cccc2nonc12 (stereo not drawn) [Isradipine] | – | -0.707 | 185.591 | –
COc1ccc(C(=O)NCc2ccc(OCCN(C)C)cc2)cc1OC [Itopride] | 560.029 | -0.688 | – | –
CC[C@H](C)[C@H]1O[C@]2(CC[C@@H]1C)C[C@@H]1C[C@@H](C/C=C(\C)[C@@H](O[C@H]3C[C@H](OC)[C@@H](O[C@H]4C[C@H](OC)[C@@H](O)[C@H](C)O4)[C@H](C)O3)[C@@H](C)/C=C/C=C3\CO[C@@H]4[C@H](O)C(C)=C[C@@H](C(=O)O1)[C@]34O)O2 [Ivermectin] | – | -2.693 | 56.4978 | –
Cl.OC1CCCCC1N1CCC(c2ccccc2)CC1 (stereo not drawn) [L(-)-vesamicol hydrochloride] | – | -0.315 | 206.223 | –
CC(CCc1ccccc1)NCC(O)c1ccc(O)c(C(N)=O)c1 (stereo not drawn) [Labetalol hydrochloride] | 596.712 | 2.094 | – | –
CC(=O)O[C@H]1C[C@H](O[C@H]2[C@@H](O)C[C@H](O[C@H]3[C@@H](O)C[C@H](O[C@H]4CC[C@@]5(C)[C@H](CC[C@@H]6[C@@H]5C[C@@H](O)[C@]5(C)[C@@H](C7=CC(=O)OC7)CC[C@]65O)C4)O[C@@H]3C)O[C@@H]2C)O[C@H](C)[C@H]1O[C@@H]1O[C@H](CO)[C@@H](O)[C@H](O)[C@H]1O [Lanatoside C] | 583.598 | -0.511 | – | –
N#Cc1ccc(C(c2ccc(C#N)cc2)n2cncn2)cc1 [Letrozole] | 610.1 | 1.169 | – | –
N[C@@H](Cc1ccc(O)c(O)c1)C(=O)O [Levodopa] | – | 0.049 | 265.141 | –
Cc1cccc(C)c1NC(=O)CN1CCN(CCCC(c2ccc(F)cc2)c2ccc(F)cc2)CC1 [Lidoflazine] | 479.588 | -0.817 | – | –
CC(=O)NC[C@H]1CN(c2ccc(N3CCOCC3)c(F)c2)C(=O)O1 [Linezolid] | – | -1.549 | 172.974 | –
C[C@H](CCC(=O)O)[C@H]1CC[C@H]2[C@@H]3CC[C@@H]4C[C@H](O)CC[C@]4(C)[C@H]3CC[C@]12C [Lithocholic acid] | – | -6.112 | 22.4499 | –
N#Cc1cc(NC(=O)C(=O)O)c(Cl)c(NC(=O)C(=O)O)c1 [Lodoxamide] | 609.015 | -0.138 | – | –
CN(CCCN1c2ccccc2CCc2ccccc21)CC(=O)c1ccc(Cl)cc1 [Lofepramine] | 479.183 | 0.81 | – | –
